The results in this text go back to publication PMC10996005, “Identification and Development of Cyclic Peptide Inhibitors of Hypoxia Inducible Factors 1 and 2 That Disrupt Hypoxia-Response Signaling in Cancer Cells” (Journal of the American Chemical Society, 2024).

One assay concerns the target T1, HIF-1α PAS-B domain (Homo sapiens, UniProt Q16665).
T1 construct: made in house
In words: MST binding to the PAS-B domain of HIF-1α. As to the method: (§1) All reagents were purchased from Fisher Scientific or Sigma Aldrich UK unless specified otherwise.
(§2) Restriction enzymes and microbiology reagents were purchased from New England Biolabs Inc., Fisher Scientific (UK) or Promega (UK) and were used as directed by the manufacturer. Primers and oligonucleotides were synthesised by Integrated DNA Technologies (UK). DNA sequencing was carried out by Eurofins MWG Operon (Germany).
(§3) Construction of the RTHS and SICLOPPS library, screening, purification of recombinant HIF proteins, and the PLA was conducted as previously described in Miranda et al., J. Am. Chem. Soc., 2013, 135(28); […]
(§4) Protein labelling with MST dye
(§5) Protein was buffer exchanged from storage buffer into labelling buffer (0.1 M NaHCO3, pH 8.5) using a PD spintrap G-25 column (GE healthcare). The protein concentration was then adjusted to 20 µM.
(§6) The commercially sourced MST dye (NanoTemper) was prepared as a 470 µM solution in DMSO, which was then further diluted to 60 µM using labelling buffer. To the protein solution was added an equal volume of dye solution, and the labelling reaction was left for 1 hour in the dark at room temperature.
(§7) The labelled protein was separated from unreacted dye by elution through a PD minitrap G-25 column (GE healthcare). Labelled protein was then aliquoted and stored at -80 °C. Extent of labelling was measured by the absorbance obtained using the UV-vis mode on a NanoDrop ND-1000 Spectrophotometer (NanoDrop Technologies, USA).
(§8) Labelled protein was thawed on ice and diluted to 50 nM in assay buffer containing 50 mM Tris pH 8.0, 150 mM NaCl, 5% (v/v) glycerol, 1 mM TCEP and 0.05% TWEEN-20. The protein solution was then centrifuged at 12000 rpm for 15 minutes at 4 °C and left on ice. Compounds were prepared and serially diluted in DMSO at 10x assay concentration, before diluting to 2x assay concentration in assay buffer.
(§9) The 2x compound solutions were then mixed 1:1 (v/v) with 50 nM labelled protein solution and left to incubate for 1 hour at room temperature. Solutions were then loaded into Monolith NT.115 Premium Capillaries (NanoTemper) and placed in the sample tray. MST experiments were carried out

Assay [1] relates to HIF-driven expression of YFP in T-REx-293 reporter cell line. The assay is described as follows: HRE-YFP reporter assay in hypoxia. The assay is classed as cell-based, human. From the text: Following in vitro characterization and optimization of binding, we next assessed the effect of our cyclic peptides in mammalian cells. A cell line with a stably integrated reporter was constructed, in which the expression of yellow fluorescent protein (YFP) was placed under the control of a HRE. Thus, hypoxia would be expected to increase YFP expression (and subsequent fluorescence) in these cells, whereas treatment with a cell-permeable HIF inhibitor would be expected to reduce this fluorescence signal. A fusion cassette was designed containing the YFP gene preceded by three copies of the HRE sequence. This cassette was stably integrated into T-REx-293 cells as previously described.[12] […] The effect of this compound on the viability of T-Rex-293 was assessed with no effect observed at doses up to 75 μM (Figure S9a). […] It should be noted that the relative activity of each compound in this assay will be a combination of its cell permeability and HIF-inhibiting activity. […] We therefore continued to further characterize the cell activity of the 4-iodo-phenylalanine derivative. […]
Generation of HRE-eYFP integrated cell line
The Flp-In System (Fisher) was used to generate a constitutive expression cell line that expresses eYFP under the control of the VEGF HRE. The coding sequence of the yellow fluorescent protein (eYFP) was cloned downstream of the VEGF HRE sequence in the pcDNA5 plasmid, such that the entire cassette was under the regulation of a Tet-On gene expression system. The plasmid was transfected into a human embryonic kidney cell line (Flp-In™-293) and integrated using the manufacturer’s protocol.
Activity Assessment using Flp-In-HRE-eYFP cell line
The Flp-In-HRE-eYFP cells were plated on 24-well plates at 80% confluency and incubated overnight under normoxic conditions. The cells were then treated with different concentrations of compound and incubated for 18 hours under hypoxic conditions. After treatment, the cells were washed with PBS and lysed to extract the total cellular protein. The cell extract was cold centrifuged for 20 minutes at 14,000 RPM. An equal amount of the supernatant from each treatment was plated on a 96-well plate, and the emission of eYFP was measured using a microplate reader. […]

In the next assay the test system is VEGF gene in 786-O cells. In words: qPCR of HIF-2-driven VEGF in 786-O cells. The assay is classed as cell-based. To be noted: 50 μM. As to the method: (§10) The effect of our lead inhibitor on hypoxia-response signaling was measured by qPCR in cancer cell lines. Cells were treated with either 2 μM of an analogue of the HIF-2-specific inhibitor belzutifan, PT2399 (control), or 50 μM of cyclo-CRLII(4-iodo)F, incubated in hypoxia for […], and the levels of the hypoxia-response genes CAIX([41],[42]) and VEGF([43]) were measured by qPCR. We observed a 51% drop in CAIX transcription and a 43% drop in VEGF transcription in hypoxic MCF-7 (breast cancer) cells treated with 50 μM of cyclo-CRLII(4-iodo)F versus hypoxic MCF-7 cells treated with DMSO only (Figure 6e). […] We also observed a 49% drop in CAIX expression in hypoxic HeLa (cervical cancer) cells treated with cyclo-CRLII(4-iodo)F (Figure S9b). […] We observed a 35% drop in HIF-2-driven VEGF transcription in 786-O cells treated with 50 μM of cyclo-CRLII(4-iodo)F compared to a 50% decrease in 786-O cells treated with PT2399. […]
(§11) Realtime PCR (qPCR) Assay
Cells were plated on 6cm dishes at 80% confluency and incubated overnight under normoxic conditions. The cells were then treated with compound and incubated for 18 hours in hypoxic conditions. After treatment, the cells were washed with PBS and lysed under hypoxic conditions. The total RNA was extracted from the cells using a commercial RNA extraction kit (Fisher Scientific) following the manufacturer's instructions. […]
On the technique in general: Quantitative PCR measures a nucleic acid by following its amplification.

Assay [2] has as its system CAIX and VEGF genes in Panc-1 cells. The assay is described as follows: qPCR of hypoxia-response genes in Panc-1 cells. It is filed as cell-based. To be noted: hypoxic Panc-1 cells, 50 μM, vs DMSO-treated hypoxic cells. As to the method: as §10, §11
Cells were plated on 6cm dishes at 80% confluency and incubated overnight under normoxic conditions. The cells were then treated with compound and incubated for 18 hours in hypoxic conditions. After treatment, the cells were washed with PBS and lysed under hypoxic conditions. The total RNA was extracted from the cells using a commercial RNA extraction kit (Fisher Scientific) following the manufacturer's instructions. A commercial reverse transcription kit (Promega) was used to generate cDNA. The MyTaq™ Mix master mix and appropriate primers targeting CAIX and VEGF were used to perform the qPCR reaction using a qPCR machine (Bio-Rad).

In the next assay the target is T2, HIF-2α PAS-B domain (Homo sapiens, UniProt Q99814).
T2 construct: made in house
The assay is described as follows: MST binding to the PAS-B domain of HIF-2α. The note with it: MST KD ratio. The procedure: as §1, §2, §3, §4, §5, §6, §7, §8, §9

Where a SMILES comes first, the peptide text is derived from it. [ ]: non-standard residue; d: D form. Phe(4-I) = N[C@@H](Cc1ccc(I)cc1)C(=O)O

T1 sequence (Q16665 238-349 limits assumed): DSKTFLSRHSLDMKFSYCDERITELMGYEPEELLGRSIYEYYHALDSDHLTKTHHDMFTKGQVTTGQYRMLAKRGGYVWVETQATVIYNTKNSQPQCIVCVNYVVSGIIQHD
T2 sequence (Q99814 240-350 limits assumed): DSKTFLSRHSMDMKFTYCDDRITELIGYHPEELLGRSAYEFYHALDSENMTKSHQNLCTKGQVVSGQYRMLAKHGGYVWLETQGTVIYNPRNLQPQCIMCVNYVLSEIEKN

Turning to `CC[C@H](C)[C@@H]1NC(=O)[C@H](CC(C)C)NC(=O)[C@H](CCCNC(=N)N)NC(=O)[C@H](CS)NC(=O)[C@H](Cc2ccc(I)cc2)NC(=O)[C@H]([C@@H](C)CC)NC1=O` [cyclo-CRLII(4-iodo)F] (cyclo(CRLII[Phe(4-I)])), on HIF-1α PAS-B domain (MST KD ratio), the “improvement in HIF-1α binding affinity compared to the parent cyclic peptide cyclo-CRLIIF” value was 4.6 fold. For the same molecule, at HIF-1α PAS-B domain (MST, mean ± SEM, n = 2 (n = 1 for most C1 analogues, n = 3 in Figure S2), read-out: KD for HIF-1α PAS-B), the Kd – broadly, the equilibrium constant for the complex coming apart – amounted to 0.8 ± 0.2 µM. Further, in assay [1] (T-REx-293 HRE-YFP reporter, 18 hours, read-out: EC50 for reduction in hypoxia-mediated YFP fluorescence), the EC50 (as a rule, the concentration that produces a half-maximal response) worked out at 30.7 ± 2.1 µM. Besides, the “relative activity among the 9 most potent cyclo-CRLIIF derivatives on YFP expression” value in assay [1] (T-Rex-293 HRE-YFP reporter) is given as “most active”. Further, the “drop in HIF-2-driven VEGF transcription” value with VEGF gene in 786-O cells came to 35%. Further, in assay [2], the “drop in CAIX expression” value is given as 41% and the “drop in VEGF transcription” value is given as 26%. Further, at HIF-2α PAS-B domain, the “improvement in KD for HIF-2α PAS-B compared to the parent cyclic peptide” value came to 6.5 fold.
